{"source": "patent US20080287375A1", "about": "“Selective Glycosidase Inhibitors, Methods of Making Inhibitors, and Uses Thereof” (SIMON FRASER UNIVERSITY, priority 2005, published 2008)", "key": {"[1]": {"assay": "Intravenous glucose tolerance test (IVGTT) in rats", "assay_type": "in vivo, rat", "conditions": "50 mg kg^−1 tail vein", "protocol": "Eight give-week old healthy Sprague-Dawley rats (Charles River) were caged in pairs. The animals were allowed to acclimatize to their new surroundings at the Simon Fraser University Animal Care Facilities (SFU ACF) for one week. At 3:00 pm, four rats were given a tail vein injection of 400 μl of inhibitor 9c dissolved in PBS buffer (pH 7.4) at a dose of 50 mg kg^−1. The remaining four rats were given a tail vein injection of 400 μl of PBS as a control. All solutions were pre-sterilized through a 0.2 μm filter (Millipore) and injected with 0.5 mL syringes containing a 28 gauge×0.5″ needle (Terumo) as bolus over 10 seconds. Food was withdrawn at approximately 11:00 pm. At 8:30 am the following morning, the rats were given a second injection. After three hours the rats were anesthetized with isoflurane and a 100 μL blood sample was taken from the jugular vein to measure the fasting blood glucose levels. An intravenous glucose tolerance test (IVGTT) was then performed. A 0.5 mL injection of a 50% w/v solution of glucose dissolved in PBS (pre-sterilized) was administered via the tail vein over 30 seconds. At 10, 20, 30, 40, 60, and 90 minutes after the injection of glucose, a 100 μL sample of blood was taken from the jugular vein. […] The soluble cell extract was then analyzed for levels O-GlcNAc modified proteins using Western blot analysis as described above for the cell studies."}, "[2]": {"target": "T1, O-GlcNAcase (Homo sapiens, UniProt O60502)", "T1 sequence (O60502 1-916)": "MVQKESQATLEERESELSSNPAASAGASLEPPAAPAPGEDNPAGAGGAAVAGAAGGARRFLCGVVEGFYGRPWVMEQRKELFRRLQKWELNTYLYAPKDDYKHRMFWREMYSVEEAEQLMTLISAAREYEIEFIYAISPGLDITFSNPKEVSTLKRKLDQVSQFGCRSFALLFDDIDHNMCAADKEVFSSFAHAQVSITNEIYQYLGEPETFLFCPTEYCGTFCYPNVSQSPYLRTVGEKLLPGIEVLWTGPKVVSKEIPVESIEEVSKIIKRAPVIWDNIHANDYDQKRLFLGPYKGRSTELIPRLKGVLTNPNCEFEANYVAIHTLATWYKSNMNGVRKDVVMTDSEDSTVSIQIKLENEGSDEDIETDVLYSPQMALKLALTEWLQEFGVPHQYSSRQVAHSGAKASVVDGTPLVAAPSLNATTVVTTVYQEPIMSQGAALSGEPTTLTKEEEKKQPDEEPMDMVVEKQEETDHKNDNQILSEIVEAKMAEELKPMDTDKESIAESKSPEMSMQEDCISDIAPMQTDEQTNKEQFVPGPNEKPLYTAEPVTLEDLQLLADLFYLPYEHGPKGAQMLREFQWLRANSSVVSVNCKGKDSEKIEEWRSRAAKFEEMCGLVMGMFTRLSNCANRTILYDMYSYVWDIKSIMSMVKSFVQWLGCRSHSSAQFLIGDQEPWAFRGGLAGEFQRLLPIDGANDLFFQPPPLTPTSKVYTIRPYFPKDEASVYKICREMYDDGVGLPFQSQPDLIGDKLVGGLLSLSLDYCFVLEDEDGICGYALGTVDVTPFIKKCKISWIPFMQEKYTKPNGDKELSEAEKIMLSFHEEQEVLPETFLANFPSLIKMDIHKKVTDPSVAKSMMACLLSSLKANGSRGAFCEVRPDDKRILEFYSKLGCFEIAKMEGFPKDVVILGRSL"}, "[3]": {"system": "O-GlcNAc modified proteins in rat tissues", "assay": "Western blot of O-GlcNAc modified proteins in tissues of rats after tail vein injection of varying doses", "assay_type": "in vivo", "protocol": "Four rats were treated by tail vein injection of different doses of inhibitor 9c or a buffer control. Two sequential injections were performed approximately 18 hours apart and the rats were then sacrificed 24 hours after the first injection. Western blot analyses using an α-O-GlcNAc antibody (CTD110.6) clearly indicate that the inhibitor 9c easily gains access into a variety of tissues including brain (A), muscle (B) and liver (C) and doses as low as 50 mg kg-1 are almost enough to elicit a maximal increase in O-GlcNAc levels.\nEight give-week old healthy Sprague-Dawley rats (Charles River) were caged in pairs. The animals were allowed to acclimatize to their new surroundings at the Simon Fraser University Animal Care Facilities (SFU ACF) for one week. At 3:00 pm, four rats were given a tail vein injection of 400 μl of inhibitor 9c dissolved in PBS buffer (pH 7.4) at a dose of 50 mg kg^−1. The remaining four rats were given a tail vein injection of 400 μl of PBS as a control. All solutions were pre-sterilized through a 0.2 μm filter (Millipore) and injected with 0.5 mL syringes containing a 28 gauge×0.5″ needle (Terumo) as bolus over 10 seconds. Food was withdrawn at approximately 11:00 pm. At 8:30 am the following morning, the rats were given a second injection. After three hours the rats were anesthetized with isoflurane and a 100 μL blood sample was taken from the jugular vein to measure the fasting blood glucose levels. An intravenous glucose tolerance test (IVGTT) was then performed. A 0.5 mL injection of a 50% w/v solution of glucose dissolved in PBS (pre-sterilized) was administered via the tail vein over 30 seconds. At 10, 20, 30, 40, 60, and 90 minutes after the injection of glucose, a 100 μL sample of blood was taken from the jugular vein. Immediately following blood sampling, a small aliquot of the blood was used to measure the blood glucose concentration using a glucometer (Accu-Check Advantage, Roche) and the remaining blood was stored on ice for 20 minutes and spun down to isolate the serum. Following completion of the IVGTT, the rats were sacrificed with 1:1 mixture of CO2/O2. Tissue samples (brain, muscle, liver, spleen, pancreas, fat) were immediately harvested and flash frozen with liquid nitrogen and stored at −80° C. To homogenize the tissues to obtain a cell extract, tissue were kept frozen while they were ground with a mortal and pestle into a fine powder. 100 mg of the powder was then homogenized in 1 mL of cold lysis buffer (50 mM Tris, 0.5% sodium deoxycholate, 0.1% SDS, 1% nonidet P-40, 1 mM EDTA, 1 mM PMSF, and 1 mM butyl-NAG-thiazoline) using two 10 second pulse on a Jenke and Kunkel Ultra-Turrax tissue homogenizer tissue homogenizer. Tissues were then spun down at 13,000 rpm in a microcentrifuge (eppendrof) to remove the cell debris. The soluble cell extract was then analyzed for levels O-GlcNAc modified proteins using Western blot analysis as described above for the cell studies."}, "[4]": {"system": "O-GlcNAc modified proteins in rat tissues", "assay": "Oral availability: tissue O-GlcNAc levels in rats fed inhibitor in chow", "assay_type": "in vivo", "protocol": "To determine if the inhibitor 9c is orally available, it was incorporated into the chow (Lab Diet 5001 Rodent Diet, PMI Nutrition International, LLC). To make the rat chow, 600 g of the ground chow was mixed with 355 ml of water and 5 μL of the inhibitor dissolved in ethanol. Small pieces were then prepared with a pasta machine (Pasta Express, Creative) and dehydrated overnight at 37° C. (Snackmaster Dehydrator, American Harvest). Five sets of chow were made with the following amounts of inhibitor: 0 mg kg^−1 days^−1, 100 or 1000 mg kg^−1 days^−1 of the deprotected (polar) inhibitor, and 100 or 1000 mg kg^−1 day^−1 of the protected (non-polar) inhibitor. […] Ten five-week old healthy Sprague-Dawley rats (two per set of food) were then allowed to feed on the rat chow for three days. The animals were then sacrificed and tissues were collected, homogenized, and analyzed as described above."}, "[5]": {"conditions": "rats fed inhibitor in food for three days"}}, "data": [{"smiles": "CCCC1=N[C@@H]2[C@@H](O)[C@H](O)[C@@H](CO)O[C@@H]2S1", "note": "[Compound 9c, 1,2-dideoxy-2′-propyl-α-D-glucopyranoso-[2,1-d]-2′-thiazoline]", "values": [{"measurement": "levels of O-GlcNAc modified proteins in rats of the IVGTT", "setting": "[1]; Western blot", "result": "increased levels"}, {"measurement": "glucose clearance rate in IVGTT", "setting": "[1]; short term exposure (<24 hours), 1 g kg^−1 glucose challenge", "result": "does not affect the glucose clearance rate"}, {"measurement": "KI for O-GlcNAcase greater than that of parent compound (9a)", "setting": "[2]", "result": 3, "unit": "fold"}, {"measurement": "inhibition of O-GlcNAcase, in words", "setting": "[2]", "result": "potent inhibitors"}, {"measurement": "selectivity for O-GlcNAcase over β-hexosaminidase, in words", "setting": "[2]", "result": "remarkable selectivity"}, {"measurement": "selectivity ratio for O-GlcNAcase over β-hexosaminidase", "setting": "[2]", "result": 1500, "unit": "fold"}, {"measurement": "Selectivity Ratio (β-Hex KI/O-GlcNAcase KI)", "setting": "[2]; Table 2", "result": 1500}, {"measurement": "discomforts of treated rats compared to the control rat", "setting": "[3]; tail vein injection", "result": "did not appear to show any discomforts"}, {"measurement": "dose enough to elicit the maximal increase in O-GlcNAc modified proteins", "setting": "[3]; tail vein injection", "result": 50, "unit": "mg/kg"}, {"measurement": "time for which the inhibitor retains an effect", "setting": "[3]; tail vein injection", "result": "≥ 6", "unit": "h"}, {"measurement": "time in which the inhibitor gains access to a wide variety of tissues", "setting": "[3]; tail vein injection", "result": "less than 24 hours"}, {"measurement": "cellular levels of O-GlcNAc modified proteins in brain tissue", "setting": "[3]; tail vein injection, 50, 120 and 300 mg/kg, compared to controls", "result": "marked increases"}, {"measurement": "dose almost enough to elicit a maximal increase in O-GlcNAc levels", "setting": "[3]; tail vein injection, brain, muscle, liver", "result": "~50", "unit": "mg/kg"}, {"measurement": "cellular levels of O-GlcNAc modified proteins in brain tissue, oral 100 mg/kg/day", "setting": "[4]; rats fed inhibitor in chow for three days", "result": "marked increases"}, {"measurement": "cellular levels of O-GlcNAc modified proteins in brain tissue, oral 1000 mg/kg/day", "setting": "[4]; rats fed inhibitor in chow for three days, compared with 100 mg/kg/day", "result": "even greater"}, {"measurement": "O-GlcNAc modified proteins in brain, muscle, pancreas, fat and spleen, oral 100 mg kg^−1 day^−1 (FIG. 12 legend)", "setting": "[4]; [5]", "result": "large increases"}, {"measurement": "O-GlcNAc modified proteins in tissues, oral 1000 mg kg^−1 days^−1 (FIG. 12 legend)", "setting": "[4]; [5]", "result": "slightly greater increases"}]}]}
